In ChEMBL document CHEMBL5728999, “Sulfoximine glycosidase inhibitors” (2022):

Target: T1, Protein O-GlcNAcase (Homo sapiens, UniProt O60502)
T1 sequence (O60502 whole entry): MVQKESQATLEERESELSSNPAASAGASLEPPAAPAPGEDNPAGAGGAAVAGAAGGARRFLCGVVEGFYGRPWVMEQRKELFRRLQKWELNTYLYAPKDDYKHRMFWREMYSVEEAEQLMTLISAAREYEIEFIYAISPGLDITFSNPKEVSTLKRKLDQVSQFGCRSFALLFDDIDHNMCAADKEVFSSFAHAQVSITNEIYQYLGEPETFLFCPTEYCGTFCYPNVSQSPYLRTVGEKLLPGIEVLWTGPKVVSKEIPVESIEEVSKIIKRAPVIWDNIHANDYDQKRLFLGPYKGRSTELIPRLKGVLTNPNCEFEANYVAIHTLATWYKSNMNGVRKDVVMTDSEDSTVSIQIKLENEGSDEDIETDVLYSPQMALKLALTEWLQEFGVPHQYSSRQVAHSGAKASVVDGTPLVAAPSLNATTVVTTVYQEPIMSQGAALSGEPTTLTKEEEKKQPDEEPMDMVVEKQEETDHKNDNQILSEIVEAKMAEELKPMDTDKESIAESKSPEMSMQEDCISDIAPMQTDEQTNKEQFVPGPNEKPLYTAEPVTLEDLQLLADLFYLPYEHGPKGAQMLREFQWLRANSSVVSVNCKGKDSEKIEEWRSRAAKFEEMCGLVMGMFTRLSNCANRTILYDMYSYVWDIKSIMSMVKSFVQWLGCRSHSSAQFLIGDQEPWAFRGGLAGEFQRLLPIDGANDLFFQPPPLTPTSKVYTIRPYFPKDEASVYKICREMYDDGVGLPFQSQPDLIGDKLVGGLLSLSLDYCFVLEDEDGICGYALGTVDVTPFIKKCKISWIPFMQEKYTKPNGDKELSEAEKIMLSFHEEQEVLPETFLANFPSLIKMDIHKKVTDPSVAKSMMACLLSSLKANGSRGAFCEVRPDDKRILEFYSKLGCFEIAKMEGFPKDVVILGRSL
Assay: Human O-GlcNAcase enzyme inhibition assay: 5 μl of the appropriate concentration of a solution of inhibitor in McIlvaine's Buffer (pH 6.5) in 2% DMSO (for a dose response curve calculation) is added into each well of a 384-well plate (Greiner, 781900). Then, 20 nM of His-Tagged hOGA and 10 μM of FL-GlcNAc (Fluorescein mono-beta-D-(2-deoxy-2-N-acetyl) glucopyranoside; Marker Gene Technologies Inc, M1485) were added to the 384-well plate for a final volume of 20 μl. After incubation for 60 min at room temperature, the reaction was terminated by the addition of 10 μL of stop buffer (200 mM glycine, pH 10.75).

IC50: < 50 nM
Compound: CC(c1ccc2c(c1)OCC2)N1CCN(c2ncnc3c2CS(=N)(=O)C3)CC1 (stereo unspecified)
